# pIC50: −log10 of the molar value.
# System: HAdV-37 virions
# Assay: Binding assay: inhibition of the binding of 35S-labeled HAdV-37 virions to HCE cells
# Assay type: cell-based
# Conditions: monovalent sialic acid, stated for comparison with Table 1
# Experimental: HCE (human corneal epithelial) and A549 cells were grown as previously described (Araki-Sasaki, K., Ohasi, K. Y., Sasabe, T., Hayashi, K., Watanabe, H., Tano, Y., Handa, H., 1995. “An SV-40-immortalized human corneal epithelial cell line and its characterization.” Invest. Ophtahlmol. 36, 614-621 and Amberg, N., Edlund, K., Kidd, A. H., Wadell, G., 2000a. Adenovirus type 37 uses sialic acid as a cellular receptor. J. Virol. 74, 42-48.).
# HAdV37 (strain 1477) virions were produced as follows: 0.3 mL of HAdV37 inoculation material (prepared from infected A549 cells) was added to A549 cells (175 cm^2 flasks) and incubated for 2 h at 37° C. […] The specific radioactivity of labeled virions was determined to be 4×10^−6 cpm per virion. The identity of HAdV-37 was determined by digesting viral DNA with restriction enzymes and compared to established patterns for HAdV-37 prototype strain (Wadell, G., Sundell, G., de Jong, J. C., 1981. Characterization of candidate adenovirus 37 by SDS-polyacrylamide gel electrophoresis of virion polypeptides and DNA restriction site mapping. J. Med. Virol. 7, 119-125.). […]
# After one additional hour, unbound virions were removed by washing, and the cell-associated radioactivity was measured with a Wallac 1409 scintillation counter (Perkin-Elmer). […]
smiles,measurement,value
CC(=O)N[C@H]1[C@H]([C@H](O)[C@H](O)CO)OC(O)(C(=O)O)C[C@@H]1O (stereo partly shown) [sialic acid],pIC50,2.30 to 2.70

# Reference: US8802654B2, “Antiviral compounds” (Adenovir Pharma AB, priority 2009, dated 2014)
